From ChEMBL document CHEMBL3714732, “Small molecule modulators of g protein-coupled receptor six” (2001)
The source made the active and inactive calls. The calls are words filed in the database; no cut-off is given here.

Key:
[1] = target: T1, G-protein coupled receptor 6 (Homo sapiens, UniProt P46095); test: Inverse agonist activity at rat G-protein GSalpha fused GPR6 (unknown origin) expressed in HEK293 cell membranes assessed as effect on [35S]GTPgammaS binding pre-incubated for 5 to 10 mins followed by 60 mins incubation in presence of [35S]GTPgammaS by scintillation proximity assay; type: functional
T1 sequence (P46095 whole entry, the tested form may be a part): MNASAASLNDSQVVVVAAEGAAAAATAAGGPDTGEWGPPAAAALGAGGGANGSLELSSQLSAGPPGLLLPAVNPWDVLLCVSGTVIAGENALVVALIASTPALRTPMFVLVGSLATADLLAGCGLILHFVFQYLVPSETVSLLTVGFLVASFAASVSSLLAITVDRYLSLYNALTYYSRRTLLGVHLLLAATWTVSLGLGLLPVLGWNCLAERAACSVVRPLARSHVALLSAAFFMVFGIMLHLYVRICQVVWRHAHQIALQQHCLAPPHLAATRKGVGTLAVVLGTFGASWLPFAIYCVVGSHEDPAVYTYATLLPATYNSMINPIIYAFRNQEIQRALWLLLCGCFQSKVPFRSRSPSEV

[2] = target: T1, G-protein coupled receptor 6; test: Inverse agonist activity at rat G-protein GSalpha fused GPR6 (unknown origin) expressed in HEK293 cell membranes assessed as cAMP accumulation pre-incubated for 30 mins by microbeta plate reader based assay; type: functional
Rattus norvegicus [3] = test: Reduction in body weight gain in 24 hrs food-deprived Sprague-Dawley rat assessed as body weight level at 54 mg/kg, ip followed by standard chow pellets feeding and measured 6.5 hrs post dose; type: functional, organism-based
Rattus norvegicus [4] = test: Induction of sedation in non-food-deprived Sprague-Dawley rat subjected to pre-pulse of 12 db followed by 120 db pulse assessed as animal jump height level at 6.75 mg/kg, po dosed 4.5 hrs before test; type: organism-based; conditions: in vivo
Rattus norvegicus [5] = test: Reduction in food intake in 24 hrs food-deprived Sprague-Dawley rat assessed as food intake level at 54 mg/kg, ip followed by standard chow pellets feeding and measured 1.5 hrs post dose (reference value: 6g); type: functional
Rattus norvegicus [6] = test: Reduction in food intake in 24 hrs food-deprived Sprague-Dawley rat at 25 to 100 nmol, icv measured after 2 hrs post dose; type: functional
Rattus norvegicus [7] = test: Reduction in food intake in 24 hrs food-deprived Sprague-Dawley rat assessed food intake level at 25 to 100 nmol, icv measured 3 hrs post dose (reference value: 2.5g); type: functional
Rattus norvegicus [8] = test: Induction of sedation in ip dosed Sprague-Dawley rat assessed as absence of anxiety like behavior after 16 hrs post dose; type: organism-based; conditions: in vivo
Rattus norvegicus [9] = species on record: Rattus norvegicus; test: Effect on motor function in Sprague-Dawley rat assessed as effect on locomotor activity for 1.5 hrs tested immediately after compound dose; type: organism-based; conditions: in vivo
Rattus norvegicus [10] = test: Reduction in body weight gain in 24 hrs food-deprived Sprague-Dawley rat assessed as body weight at 100 umol/kg, po followed by standard chow pellets feeding and measured 8 hrs post dose (reference value: 19.5g); type: functional
Rattus norvegicus [11] = test: Reduction in food intake in non-food-deprived Sprague-Dawley rat assessed as food intake level at 6.5 to 54 mg/kg, po followed by standard chow pellets feeding and measured 18 hrs post dose (reference value: 15g); type: functional
Rattus norvegicus [12] = test: Induction of sedation in ip dosed Sprague-Dawley rat assessed as relaxed behavior after 16 hrs post dose; type: organism-based; conditions: in vivo
Rattus norvegicus [13] = test: Reduction in food intake in 24 hrs food-deprived Sprague-Dawley rat dosed orally followed by standard chow pellets feeding; type: functional, organism-based
Rattus norvegicus [14] = test: Reduction in food intake in 24 hrs food-deprived Sprague-Dawley rat assessed as food intake level at 54 mg/kg, po followed by standard chow pellets feeding and measured 8 hrs post dose (reference value: 14g); type: functional
Rattus norvegicus [15] = test: Reduction in food intake in 24 hrs food-deprived Sprague-Dawley rat assessed as food intake level at 54 mg/kg, po followed by standard chow pellets feeding and measured 2.5 hrs post dose (reference value: 6g); type: functional
Rattus norvegicus [16] = test: Reduction in water intake in 24 hrs food-deprived Sprague-Dawley rat assessed as at 27 mg/kg, ip followed by standard chow pellets feeding and measured 6.5 hrs post dose relative to control; type: functional
Rattus norvegicus [17] = test: Reduction in food intake in 24 hrs food-deprived Sprague-Dawley rat assessed as food intake level at 27 mg/kg, po followed by standard chow pellets feeding and measured 2.5 hrs post dose (reference value: 6g); type: functional
Rattus norvegicus [18] = test: Reduction in food intake in non-food-deprived Sprague-Dawley rat assessed as food intake level at 13.5 mg/kg, ip dosed 30 mins before beginning of dark cycle followed by exposure to standard chow pellets and measured 4 hrs post dose (reference value: 9g); type: functional
Rattus norvegicus [19] = test: Reduction in food intake in 24 hrs food-deprived Sprague-Dawley rat assessed as food intake level at 27 mg/kg, po followed by standard chow pellets feeding and measured 8 hrs post dose (reference value: 14g); type: functional
Rattus norvegicus [20] = test: Reduction in food intake in 24 hrs food-deprived Sprague-Dawley rat assessed as food intake level at 54 mg/kg, ip followed by standard chow pellets feeding and measured 6.5 hrs post dose (reference value: =<14g); type: functional
Rattus norvegicus [21] = test: Reduction in food intake in 24 hrs food-deprived Sprague-Dawley rat assessed as food intake level at 100 umol/kg, po followed by standard chow pellets feeding and measured 8 hrs post dose (reference value: 14 to 14.5g); type: functional
Rattus norvegicus [22] = test: Reduction in body weight gain in 24 hrs food-deprived Sprague-Dawley rat assessed as body weight level at 27 mg/kg, ip followed by standard chow pellets feeding and measured 6.5 hrs post dose; type: functional, organism-based
Rattus norvegicus [23] = test: Reduction in water intake in non-food-deprived Sprague-Dawley rat at 6.75 to 54 mg/kg, ip dosed 30 mins before beginning of dark cycle followed by exposure to standard chow pellets and measured 15.5 hrs post dose; type: functional, organism-based
Rattus norvegicus [24] = test: Reduction in body weight gain in non-food-deprived Sprague-Dawley rat at 13.5 mg/kg, ip qd for 22 days measured on day-1 and day-3 post dose; type: functional, organism-based
Rattus norvegicus [25] = test: Reduction in body weight gain in 24 hrs food-deprived Sprague-Dawley rat assessed as body weight level at 13.5 mg/kg, ip followed by standard chow pellets feeding and measured 6.5 hrs post dose (reference value: 20g); type: functional
Rattus norvegicus [26] = test: Reduction in body weight gain in non-food-deprived Sprague-Dawley rat at 13.5 mg/kg, ip qd for 22 days measured between day-4 and day-31 post dose; type: functional, organism-based
Rattus norvegicus [27] = test: Reduction in water intake in 24 hrs food-deprived Sprague-Dawley rat assessed water intake level at 25 and 50 nmol, icv (reference value: 17 g); type: functional
Rattus norvegicus [28] = test: Reduction in body weight gain in 24 hrs food-deprived Sprague-Dawley rat assessed body weight gain intake level at 100 nmol, icv (reference value: 12g); type: functional
Rattus norvegicus [29] = test: Induction of sedation in non-food-deprived Sprague-Dawley rat subjected to pre-pulse of 12 db followed by 120 db pulse assessed as animal jump height level at 13.5 and 54 mg/kg, po dosed 4.5 hrs before test; type: organism-based; conditions: in vivo
Rattus norvegicus [30] = test: Reduction in body weight gain in non-food-deprived Sprague-Dawley rat at 13.5 mg/kg, ip qd for 22 days measured between day-31 and day-60 post dose; type: functional, organism-based
Rattus norvegicus [31] = test: Reduction in body weight gain in non-food-deprived Sprague-Dawley rat at 6.75 to 54 mg/kg, ip dosed 30 mins before beginning of dark cycle followed by exposure to standard chow pellets and measured 15.5 hrs post dose; type: functional, organism-based
Rattus norvegicus [32] = test: Reduction in food intake in non-food-deprived Sprague-Dawley rat at 6.5 to 54 mg/kg, po followed by standard chow pellets feeding and measured 18 hrs post dose relative to control; type: functional
Rattus norvegicus [33] = test: Reduction in water intake in 24 hrs food-deprived Sprague-Dawley rat at 54 mg/kg, ip followed by standard chow pellets feeding and measured 6.5 hrs post dose relative to control; type: functional
Rattus norvegicus [34] = test: Reduction in food intake in non-food-deprived Sprague-Dawley rat assessed as food intake level at 54 mg/kg, ip dosed 30 mins before beginning of dark cycle followed by exposure to standard chow pellets and measured 4 hrs post dose (reference value: 9g); type: functional
Rattus norvegicus [35] = test: Reduction in water intake in 24 hrs food-deprived Sprague-Dawley rat at 100 nmol, icv; type: functional
Rattus norvegicus [36] = test: Reduction in water intake in 24 hrs food-deprived Sprague-Dawley rat assessed as water intake level at 100 umol/kg, po followed by standard chow pellets feeding and measured 8 hrs post dose (reference value: 19g); type: functional
Rattus norvegicus [37] = test: Reduction in food intake in 24 hrs food-deprived Sprague-Dawley rat assessed as food intake level per 2 hrs at 100 umol/kg, po followed by standard chow pellets feeding and measured 8 hrs post dose (reference value: 2 to 2.5g/2 hrs); type: functional
Rattus norvegicus [38] = test: Reduction in body weight gain in 24 hrs food-deprived Sprague-Dawley rat assessed as body weight gain level at 100 umol/kg, po followed by standard chow pellets feeding and measured 6 hrs post dose (reference value: 19.25 to 20.3g); type: functional

SMILES: CSc1ncccc1C(=O)NC(=S)N1CCNC1=S
- IC50 [1]: 200 µM

SMILES: O=C(/N=C1\SSC2=NCCN21)c1ccc(C(F)(F)F)cc1
- IC50 [1]: 0.57 µM
- IC50 [2]: 0.17 µM

SMILES: O=C(/N=C1\SSC2=NCCN21)c1cccs1
- Activity (Rattus norvegicus [3]): Active
- Activity (Rattus norvegicus [4]): Non-toxic
- Activity (Rattus norvegicus [5]): 3 g
- fold change (FC) (Rattus norvegicus [6]): 6
- Activity (Rattus norvegicus [7]): <=1 g
- Activity (Rattus norvegicus [8]): Toxic
- Activity (Rattus norvegicus [9]): Non-toxic
- Activity (Rattus norvegicus [10]): 6 g
- Activity (Rattus norvegicus [11]): <=5 g
- Activity (Rattus norvegicus [12]): Toxic
- Activity (Rattus norvegicus [13]): Dose-dependent effect
- Activity (Rattus norvegicus [14]): 6 g
- Activity (Rattus norvegicus [15]): 4 g
- fold change (FC) (Rattus norvegicus [16]): 4
- Activity (Rattus norvegicus [17]): 6 g
- Activity (Rattus norvegicus [18]): 4 g
- Activity (Rattus norvegicus [19]): 8 g
- Activity (Rattus norvegicus [20]): 4 g
- Activity (Rattus norvegicus [21]): 8.1 g
- IC50 [1]: 0.42 µM
- Activity (Rattus norvegicus [22]): Active
- Activity (Rattus norvegicus [23]): Active
- Activity (Rattus norvegicus [24]): Active
- Activity (Rattus norvegicus [25]): 11 g
- Activity (Rattus norvegicus [26]): Active
- Activity (Rattus norvegicus [27]): 17 g
- Activity (Rattus norvegicus [28]): 5 g
- Activity (Rattus norvegicus [29]): Toxic
- Activity (Rattus norvegicus [30]): Active
- IC50 [2]: 0.1 µM
- Activity (Rattus norvegicus [31]): Active
- fold change (FC) (Rattus norvegicus [32]): 3
- fold change (FC) (Rattus norvegicus [33]): 5
- Activity (Rattus norvegicus [34]): 2 g
- inhibition (INH) (Rattus norvegicus [35]): >=50%

SMILES: Cc1cccc(C(=O)/N=C2\SSC3=NCCN32)c1
- IC50 [1]: 0.79 µM
- IC50 [2]: 0.14 µM

SMILES: CC(C)(C)c1ccc(C(=O)NC(=S)N2CCNC2=S)cc1
- IC50 [1]: 200 µM

SMILES: Cc1noc(C)c1C(=O)/N=C1\SSC2=NCCN21
- IC50 [1]: 0.46 µM
- IC50 [2]: 0.35 µM

SMILES: O=C(/N=C1\SSC2=NCCN21)c1ccc(F)cc1F
- IC50 [1]: 0.41 µM
- IC50 [2]: 0.19 µM

SMILES: O=C(/N=C1\SSC2=NCCN21)c1ccccc1F
- IC50 [1]: 0.35 µM
- IC50 [2]: 0.1 µM

SMILES: COc1ccc(C(=O)/N=C2\SSC3=NCCN32)cc1
- IC50 [1]: 0.83 µM
- IC50 [2]: 0.21 µM

SMILES: O=C(/N=C1\SSC2=NCCN21)c1ccc2ccccc2c1
- Activity (Rattus norvegicus [10]): 11 g
- Activity (Rattus norvegicus [36]): 4 g
- Activity (Rattus norvegicus [37]): 1 g
- Activity (Rattus norvegicus [21]): 9 g
- IC50 [1]: 0.17 µM
- IC50 [2]: 0.17 µM
- Activity (Rattus norvegicus [38]): 11 g

SMILES: O=C(/N=C1\SSC2=NCCN21)c1cccnc1
- IC50 [1]: 0.67 µM
- IC50 [2]: 0.133 µM

SMILES: O=C(NC(=S)N1CCNC1=S)c1cnn(-c2ccc(Cl)cc2)c1C(F)(F)F
- IC50 [1]: 200 µM
- IC50 [2]: 200 µM

SMILES: CC(C)(C)c1ccc(C(=O)/N=C2\SSC3=NCCN32)cc1
- IC50 [1]: 0.65 µM
- IC50 [2]: 0.37 µM
